In US9884832B2 (priority 2011, dated 2018):
Like-named read-outs stand apart in the source and are kept apart here.

Experiments:
[1] = target: AM2 V27A (valine→alanine mutation at residue 27 in the M2 protein) (Influenza A virus, UniProt P0DOF5, V27A); type: cell-based, influenza virus A/Udorn/72
[2] = target: AM2 S31N (serine→asparagine mutation at residue 31 in the M2 protein) (Influenza A virus, UniProt P0DOF5, S31N); type: cell-based, influenza virus A/Udorn/72

Oc1ccc(CNC23CC4CC(CC(C4)C2)C3)c(O)c1O [Example 65, 4-(Adamantan-1-ylaminomethyl)-benzene-1,2,3-triol]
V27A OOcyte Inhibition at 100 uM (%) ([1]; pH 5.5): A (key: (A)=31-95%; (B)=0-30%)
S31N OOcyte Inhibition at 100 uM (%) ([2]; pH 5.5): B (key: (A)=31-95%; (B)=0-30%)

Oc1cccc2ccc(CNC34CC5CC(CC(C5)C3)C4)nc12 [Example 65a, 2-((adamantan-1-ylamino)methyl)quinolin-8-ol]
V27A OOcyte Inhibition at 100 uM (%) [1]: B (key: (A)=31-95%; (B)=0-30%)
S31N OOcyte Inhibition at 100 uM (%) [2]: B (key: (A)=31-95%; (B)=0-30%)

COc1cc(O)cc(OC)c1CNC12CC3CC(CC(C3)C1)C2 [Example 66, 4-(Adamantan-1-ylaminomethyl)-3,5-dimethoxy-phenol]
V27A OOcyte Inhibition at 100 uM (%) ([1]; pH 5.5): B (key: (A)=31-95%; (B)=0-30%)
S31N OOcyte Inhibition at 100 uM (%) ([2]; pH 5.5): B (key: (A)=31-95%; (B)=0-30%)

c1cc(CNC23CC4CC(CC(C4)C2)C3)co1 [Example 66a, Adamantan-1-yl-furan-3-ylmethyl-amine]
V27A OOcyte Inhibition at 100 uM (%) [1]: B (key: (A)=31-95%; (B)=0-30%)
S31N OOcyte Inhibition at 100 uM (%) [2]: B (key: (A)=31-95%; (B)=0-30%)

Oc1c(F)cc(CNC23CC4CC(CC(C4)C2)C3)cc1Cl [Example 68, 4-(Adamantan-1-ylaminomethyl)-2-chloro-6-fluoro-phenol]
V27A OOcyte Inhibition at 100 uM (%) ([1]; pH 5.5): B (key: (A)=31-95%; (B)=0-30%)
S31N OOcyte Inhibition at 100 uM (%) ([2]; pH 5.5): B (key: (A)=31-95%; (B)=0-30%)

c1cc(CNC23CC4CC(CC(C4)C2)C3)cs1 [Example 68a, Adamantan-1-yl-thiophen-3-ylmethyl-amine]
V27A OOcyte Inhibition at 100 uM (%) [1]: A (key: (A)=31-95%; (B)=0-30%)
S31N OOcyte Inhibition at 100 uM (%) [2]: B (key: (A)=31-95%; (B)=0-30%)

Oc1cc(F)c(CNC23CC4CC(CC(C4)C2)C3)c(F)c1 [Example 69, 4-(Adamantan-1-ylaminomethyl)-3,5-difluoro-phenol]
V27A OOcyte Inhibition at 100 uM (%) ([1]; pH 5.5): A (key: (A)=31-95%; (B)=0-30%)
S31N OOcyte Inhibition at 100 uM (%) ([2]; pH 5.5): B (key: (A)=31-95%; (B)=0-30%)

c1coc(CNC23CC4CC(CC(C4)C2)C3)c1 [Example 69a, Adamantan-1-yl-furan-2-ylmethyl-amine]
V27A OOcyte Inhibition at 100 uM (%) [1]: B (key: (A)=31-95%; (B)=0-30%)
S31N OOcyte Inhibition at 100 uM (%) [2]: B (key: (A)=31-95%; (B)=0-30%)

Oc1cc(O)c(CNC23CC4CC(CC(C4)C2)C3)c(O)c1 [Example 70, 2-(Adamantan-1-ylaminomethyl)-benzene-1,3,5-triol]
V27A OOcyte Inhibition at 100 uM (%) ([1]; pH 5.5): B (key: (A)=31-95%; (B)=0-30%)
S31N OOcyte Inhibition at 100 uM (%) ([2]; pH 5.5): B (key: (A)=31-95%; (B)=0-30%)

c1csc(CNC23CC4CC(CC(C4)C2)C3)c1 [Example 70a, Adamantan-1-yl-thiophen-2-ylmethyl-amine]
V27A OOcyte Inhibition at 100 uM (%) [1]: B (key: (A)=31-95%; (B)=0-30%)
S31N OOcyte Inhibition at 100 uM (%) [2]: B (key: (A)=31-95%; (B)=0-30%)

c1csc(CNC23CC4CC(CC(C4)C2)C3)n1 [Example 71a, Adamantan-1-yl-thiazol-2-ylmethyl-amine]
V27A OOcyte Inhibition at 100 uM (%) [1]: B (key: (A)=31-95%; (B)=0-30%)
S31N OOcyte Inhibition at 100 uM (%) [2]: A (key: (A)=31-95%; (B)=0-30%)

c1ccc(CNC23CC4CC(CC(C4)C2)C3)nc1 [Example 72, Adamantan-1-yl-pyridin-2-ylmethyl-amine]
V27A OOcyte Inhibition at 100 uM (%) ([1]; pH 5.5): B (key: (A)=31-95%; (B)=0-30%)
S31N OOcyte Inhibition at 100 uM (%) ([2]; pH 5.5): B (key: (A)=31-95%; (B)=0-30%)

c1cc(CNC23CC4CC(CC(C4)C2)C3)ccn1 [Example 73, Adamantan-1-yl-pyridin-4-ylmethyl-amine]
V27A OOcyte Inhibition at 100 uM (%) ([1]; pH 5.5): B (key: (A)=31-95%; (B)=0-30%)
S31N OOcyte Inhibition at 100 uM (%) ([2]; pH 5.5): B (key: (A)=31-95%; (B)=0-30%)

COc1ccsc1CNC12CC3CC(CC(C3)C1)C2 [Example 74a, Adamantan-1-yl-(3-methoxy-thiophen-2-ylmethyl)-amine]
V27A OOcyte Inhibition at 100 uM (%) [1]: B (key: (A)=31-95%; (B)=0-30%)
S31N OOcyte Inhibition at 100 uM (%) [2]: A (key: (A)=31-95%; (B)=0-30%)

Nc1ncc(CNC23CC4CC(CC(C4)C2)C3)cn1 [Example 75, 5-(Adamantan-1-ylaminomethyl)-pyrimidin-2-ylamine]
V27A OOcyte Inhibition at 100 uM (%) ([1]; pH 5.5): B (key: (A)=31-95%; (B)=0-30%)
S31N OOcyte Inhibition at 100 uM (%) ([2]; pH 5.5): B (key: (A)=31-95%; (B)=0-30%)

COc1ccc(CNC23CC4CC(CC(C4)C2)C3)s1 [Example 75a, N-((5-methoxythiophen-2-yl)methyl)adamantan-1-amine]
V27A OOcyte Inhibition at 100 uM (%) [1]: B (key: (A)=31-95%; (B)=0-30%)
S31N OOcyte Inhibition at 100 uM (%) [2]: A (key: (A)=31-95%; (B)=0-30%)

Cc1ccsc1CNC12CC3CC(CC(C3)C1)C2 [Example 76a, N-((3-methylthiophen-2-yl)methyl)adamantan-1-amine]
V27A OOcyte Inhibition at 100 uM (%) [1]: B (key: (A)=31-95%; (B)=0-30%)
S31N OOcyte Inhibition at 100 uM (%) [2]: B (key: (A)=31-95%; (B)=0-30%)

OCc1ccc(CNC23CC4CC(CC(C4)C2)C3)o1 [Example 77, [5-(Adamantan-1-ylaminomethyl)-furan-2-yl]methanol]
V27A OOcyte Inhibition at 100 uM (%) ([1]; pH 5.5): B (key: (A)=31-95%; (B)=0-30%)
S31N OOcyte Inhibition at 100 uM (%) ([2]; pH 5.5): B (key: (A)=31-95%; (B)=0-30%)

c1csc(-c2ccc(CNC34CC5CC(CC(C5)C3)C4)s2)c1 [Example 78, N-([2,2′-Bithiophen]-5-ylmethyl)adamantan-1-amine]
V27A OOcyte Inhibition at 100 uM (%) ([1]; pH 5.5): B (key: (A)=31-95%; (B)=0-30%)
S31N OOcyte Inhibition at 100 uM (%) ([2]; pH 5.5): A (key: (A)=31-95%; (B)=0-30%)

Cc1ccc(CNC23CC4CC(CC(C4)C2)C3)s1 [Example 78a, N-((5-methylthiophen-2-yl)methyl)adamantan-1-amine]
V27A OOcyte Inhibition at 100 uM (%) [1]: A (key: (A)=31-95%; (B)=0-30%)
S31N OOcyte Inhibition at 100 uM (%) [2]: A (key: (A)=31-95%; (B)=0-30%)

c1cc2cc(CNC34CC5CC(CC(C5)C3)C4)sc2s1 [Example 79, Adamantan-1-yl-thieno[2,3-b]thiophen-2-ylmethyl-amine]
V27A OOcyte Inhibition at 100 uM (%) ([1]; pH 5.5): B (key: (A)=31-95%; (B)=0-30%)
S31N OOcyte Inhibition at 100 uM (%) ([2]; pH 5.5): A (key: (A)=31-95%; (B)=0-30%)

Clc1ccc(CNC23CC4CC(CC(C4)C2)C3)s1 [Example 79a, N-((5-chlorothiophen-2-yl)methyl)adamantan-1-amine]
V27A OOcyte Inhibition at 100 uM (%) [1]: B (key: (A)=31-95%; (B)=0-30%)
S31N OOcyte Inhibition at 100 uM (%) [2]: A (key: (A)=31-95%; (B)=0-30%)

c1cc2[nH]c(CNC34CC5CC(CC(C5)C3)C4)cc2s1 [Example 80, Adamantan-1-yl-(4H-thieno[3,2-b]pyrrol-5-ylmethyl)-amine]
V27A OOcyte Inhibition at 100 uM (%) ([1]; pH 5.5): B (key: (A)=31-95%; (B)=0-30%)
S31N OOcyte Inhibition at 100 uM (%) ([2]; pH 5.5): A (key: (A)=31-95%; (B)=0-30%)

COc1cc(Cl)sc1CNC12CC3CC(CC(C3)C1)C2 [Example 80a]
V27A OOcyte Inhibition at 100 uM (%) [1]: B (key: (A)=31-95%; (B)=0-30%)
S31N OOcyte Inhibition at 100 uM (%) [2]: B (key: (A)=31-95%; (B)=0-30%)

c1cc2sc(CNC34CC5CC(CC(C5)C3)C4)cc2s1 [Example 81, Adamantan-1-yl-thieno[3,2-b]thiophen-2-ylmethyl-amine]
V27A OOcyte Inhibition at 100 uM (%) ([1]; pH 5.5): B (key: (A)=31-95%; (B)=0-30%)
S31N OOcyte Inhibition at 100 uM (%) ([2]; pH 5.5): A (key: (A)=31-95%; (B)=0-30%)

Brc1ccc(CNC23CC4CC(CC(C4)C2)C3)s1 [Example 81a, N-((5-Bromothiophen-2-yl)methyl)adamantan-1-amine]
V27A OOcyte Inhibition at 100 uM (%) [1]: B (key: (A)=31-95%; (B)=0-30%)
S31N OOcyte Inhibition at 100 uM (%) [2]: A (key: (A)=31-95%; (B)=0-30%)

CC(NC12CC3CC(CC(C3)C1)C2)c1ccc(I)s1 (stereo not drawn) [Example 82a, N-(1-(5-iodothiophen-2-yl)ethyl)adamantan-1-amine]
V27A OOcyte Inhibition at 100 uM (%) [1]: A (key: (A)=31-95%; (B)=0-30%)
S31N OOcyte Inhibition at 100 uM (%) [2]: B (key: (A)=31-95%; (B)=0-30%)

c1cc2cc(CNC34CC5CC(CC(C5)C3)C4)sc2o1 [Example 83, Adamantan-1-yl-thieno[2,3-b]furan-5-ylmethyl-amine]
V27A OOcyte Inhibition at 100 uM (%) ([1]; pH 5.5): B (key: (A)=31-95%; (B)=0-30%)
S31N OOcyte Inhibition at 100 uM (%) ([2]; pH 5.5): A (key: (A)=31-95%; (B)=0-30%)

Brc1nc(CNC23CC4CC(CC(C4)C2)C3)cs1 [Example 83a, N-((2-bromothiazol-4-yl)methyl)adamantan-1-amine]
V27A OOcyte Inhibition at 100 uM (%) [1]: B (key: (A)=31-95%; (B)=0-30%)
S31N OOcyte Inhibition at 100 uM (%) [2]: A (key: (A)=31-95%; (B)=0-30%)

c1c(CNC23CC4CC(CC(C4)C2)C3)sc2c1CSC2 [Example 84, Adamantan-1-yl-(4,6-dihydro-thieno[3,4-b]thiophen-2-ylmethyl)-amine]
V27A OOcyte Inhibition at 100 uM (%) ([1]; pH 5.5): B (key: (A)=31-95%; (B)=0-30%)
S31N OOcyte Inhibition at 100 uM (%) ([2]; pH 5.5): A (key: (A)=31-95%; (B)=0-30%)

[O-][S+]1Cc2cc(CNC34CC5CC(CC(C5)C3)C4)sc2C1 (stereo not drawn) [Example 85, Adamantan-1-yl-(5-oxo-5,6-dihydro-4H-5M-thieno[3,4-b]thiophen-2-ylmethyl)-amine]
V27A OOcyte Inhibition at 100 uM (%) ([1]; pH 5.5): B (key: (A)=31-95%; (B)=0-30%)
S31N OOcyte Inhibition at 100 uM (%) ([2]; pH 5.5): B (key: (A)=31-95%; (B)=0-30%)

c1cn2cc(CNC34CC5CC(CC(C5)C3)C4)nc2s1 [Example 86, Adamantan-1-yl-imidazo[2,1-b]thiazol-6-ylmethyl-amine]
V27A OOcyte Inhibition at 100 uM (%) ([1]; pH 5.5): B (key: (A)=31-95%; (B)=0-30%)
S31N OOcyte Inhibition at 100 uM (%) ([2]; pH 5.5): A (key: (A)=31-95%; (B)=0-30%)

Clc1c(CNC23CC4CC(CC(C4)C2)C3)nc2sccn12 [Example 87, Adamantan-1-yl-(5-chloro-imidazo[2,1-b]thiazol-6-ylmethyl)-amine]
V27A OOcyte Inhibition at 100 uM (%) ([1]; pH 5.5): B (key: (A)=31-95%; (B)=0-30%)
S31N OOcyte Inhibition at 100 uM (%) ([2]; pH 5.5): B (key: (A)=31-95%; (B)=0-30%)
